Reference: patent US20170368052A1, “CRYSTAL FORMS OF APOMORPHINE AND USES THEREOF” (NeuroDerm, Ltd., priority 2014, published 2017)

Assays:
Type in all cases: physicochemical
[1] = Stability of the reaction mixture at reflux in IPA with/without ascorbic acid-6-palmitate (HPLC); details: solution at reflux with ascorbic acid-6-palmitate
Description: In this case, the base was added under reflux and the procedure compared with and without ascorbic acid-6-palmitate as an antioxidant (Table 7).

[2] = Process hold-point stability (purity profile)
Description: An optimized non-aqueous procedure is provided below and shown in Scheme 4. • 1. Add apomorphine hydrochloride (1.0 wt), ascorbic acid-6-palmitate (0.01 wt), IPA (30 vol) and stir at 18-23° C. • 2. Vacuum/nitrogen purge the vessel 3× at 18-23° C. and place under a flow of nitrogen. • 3. Heat the slurry to 60-65° C. • 4. Add 3-amino-1-propanol (1.1 eq, 0.25 vol) maintaining 60-70° C. (target 60-65° C.). • 5. As required, cool the reaction mixture to 60-65° C. […] Stir for 15-20 minutes and check for full dissolution. • 7. On full dissolution, clarify the reaction mixture through a ≦1 μm filter and line rinse with IPA (3 vol) at 60-65° C. (Note: the reaction solution is highly unstable to air while hot, therefore total exclusion of air is required.) • 8. Concentrate the reaction mixture under reduced pressure to approximately 10 vol maintaining 55-65° C. • 9. […] Cool the slurry to 68-71° C. and age for 1 h (crystallization is expected during the cool down period approximately 72° C.). • 11. Slow the stirring for the remainder of the preparation to the minimum effective rate and check for crystallization: if crystallization has not occurred, seed the reaction with 0.1 wt % of seeds and age for 1 h. • 12. Cool the slurry to 18-23° C. over 5-6 h at an approximately constant rate. • 13. Age the slurry at 18-23° C. for 2-16 h. • 14. […]

[3] = Equilibrium desiccator analysis at 75-80% RH; details: 75 to 80% RH at 18-23° C., after 1 h

## CN1CCc2cccc3c2C1Cc1ccc(O)c(O)c1-3 (stereo not shown) [A0513-98-01]
[1]
  % area: RRT 1.00: 99.83 % area
  % area: RRT 1.25: 0.04 % area
  % area: RRT 1.71: 0.06 % area
  % area: RRT 1.76: 0.04 % area
[2]; reaction mixture held 2 h at reflux (83° C.)
  Change in purity profile: no significant change

## CN1CCc2cccc3c2[C@H]1Cc1ccc(O)c(O)c1-3 [A0505-110-D1, apomorphine free base]
[3]
  Weight increase: 2.0 % w/w

## CC(C)O.CN1CCc2cccc3c2C1Cc1ccc(O)c(O)c1-3 (stereo not shown) [A0513-126, apomorphine free base IPA solvate]
[2]; distillation over 6 h at 60-65° C.
  Change in purity profile of the material isolated: no significant change
